Data published in US4560509A, “Antibiotic A39079 factor S-1” (Eli Lilly and Company, priority 1983, dated 1985).

Columns and labels:
[1] = stability in aqueous methanol solutions; format: physicochemical
Description: (7) Stability: Stability studies on factor S-1 in aqueous methanol solutions were run at pH levels of 2,5,7 and 9 and at temperatures of 4° C., 25° C., and 37° C.

rumen flora = experiment: ruminant feed-utilization activity (VFA and methane production in treated vs control flasks); format: cell-based
Source text: Animals having a developed rumen function utilize feed by first degrading the carbohydrate (the main nutritive portion) to pyruvate. The pyruvate is further metabolized to volatile fatty acid (VFA) derivatives, which include acetate, propionate and butyrate. It is known that the efficiency of carbohydrate utilization in ruminants is increased by treatments which stimulate the animals' rumen flora to produce propionate compounds rather than acetate or butyrate compounds. Feed-utilization efficiency can also be improved by inhibiting methane production. When methane gas is produced in the rumen, it is generally lost through eructation. This energy loss can be minimized by inhibiting methane formation.

Micrococcus luteus = experiment: antibiotic activity of column fractions; format: cell-based
Description: Whole broth (100 L), prepared in a manner similar to that of Example 1, Section B, was filtered using a filter aid (Hyflo Supercel, Johns-ManvilleCorp.). The filtered broth (86 L) is adjusted to pH 2 with 5N hydrochloric acid and then is extracted twice with ethyl acetate (1/2 volumes). The ethyl acetate extracts are concentrated under vacuum to give an oily residue (49 g). This residue is dissolved in methanol and placed on a 10-L Diaion HP-20 column (Mitsubishi Industries). The column is washed with water (500 ml) and eluted with acetonitrile:water (30 L of 3:7 and 50 L of 3:2) and acetonitrile (20 L). Elution is carried out at a rate of 100 ml/min., collecting 4-liter fractions. Fractions are tested for antibiotic activity against Micrococcus luteus, Escherichia coli, and Neurospora crassa.
Factor S-1 is further purified in 200-mg portions by dissolving it in methanol and chromatographing the solution on a 1"×30-cm column packed with Zorbax ODS (12μ) (E. I. duPont). The column is eluted at 10 ml/min with 45% acetonitrile in 0.01% trifluoroacetic acid (400 ml) and then with a 400-ml gradient of from 45%-100% acetonitrile in 0.01% trifluoroacetic acid. Fractions are checked by UV absorption at 264 nm and by disc bioassay against M. luteus. Fractions containing only factor S-1 are combined, concentrated and lyophilized to dryness. […]

CC(=O)OC1C(C)C(O)C=COC2(C)Oc3c(C)c(O)c4c(c3C2=O)C(=O)C(C)=C(NC(=O)C=CC=CC(C)C(O)C(C)C(O)C1C)C4=O (stereo not drawn) [Factor S-1]
stability versus temperature ([1]; 4° C., 25° C. and 37° C.): most stable at 4° C., less stable at 25° C., and least stable at 37 °C | stability versus pH ([1]; pH 2, 5, 7 and 9): more stable in slightly acidic, neutral and basic solutions than in strongly acidic solutions (pH=2) | Ratio of Treated to Control, Molar Percent, acetic (rumen flora; dose 0.5 ppm): 1.04 | Ratio of Treated to Control, Molar Percent, butyric (rumen flora; dose 0.5 ppm): 0.57 | Ratio of Treated to Control, Molar Percent, propionic (rumen flora; dose 0.5 ppm): 1.29 | Ratio of Treated to Control, mMoles/Day, Total VFA (rumen flora; dose 0.5 ppm): 1.18 | Ratio of Treated to Control, mMoles/Day, acetic (rumen flora; dose 0.5 ppm): 1.22 | Ratio of Treated to Control, mMoles/Day, butyric (rumen flora; dose 0.5 ppm): 0.67 | Ratio of Treated to Control, mMoles/Day, methane (rumen flora; dose 0.5 ppm): 1.03 | Ratio of Treated to Control, mMoles/Day, propionic (rumen flora; dose 0.5 ppm): 1.52 | Ratio of Treated to Control, Molar Percent, acetic (rumen flora; dose 1 ppm): 1.05 | Ratio of Treated to Control, Molar Percent, butyric (rumen flora; dose 1 ppm): 0.48 | Ratio of Treated to Control, Molar Percent, propionic (rumen flora; dose 1 ppm): 1.49 | Ratio of Treated to Control, mMoles/Day, Total VFA (rumen flora; dose 1 ppm): 1.22 | Ratio of Treated to Control, mMoles/Day, acetic (rumen flora; dose 1 ppm): 1.27 | Ratio of Treated to Control, mMoles/Day, butyric (rumen flora; dose 1 ppm): 0.59 | Ratio of Treated to Control, mMoles/Day, methane (rumen flora; dose 1 ppm): 0.98 | Ratio of Treated to Control, mMoles/Day, propionic (rumen flora; dose 1 ppm): 1.75 | Ratio of Treated to Control, Molar Percent, acetic (rumen flora; dose 2 ppm): 1.08 | Ratio of Treated to Control, Molar Percent, butyric (rumen flora; dose 2 ppm): 0.43 | Ratio of Treated to Control, Molar Percent, propionic (rumen flora; dose 2 ppm): 1.55 | Ratio of Treated to Control, mMoles/Day, Total VFA (rumen flora; dose 2 ppm): 1.06 | Ratio of Treated to Control, mMoles/Day, acetic (rumen flora; dose 2 ppm): 1.15 | Ratio of Treated to Control, mMoles/Day, butyric (rumen flora; dose 2 ppm): 0.46 | Ratio of Treated to Control, mMoles/Day, methane (rumen flora; dose 2 ppm): 1.09 | Ratio of Treated to Control, mMoles/Day, propionic (rumen flora; dose 2 ppm): 1.63 | Ratio of Treated to Control, Molar Percent, acetic (rumen flora; dose 5 ppm): 1.07 | Ratio of Treated to Control, Molar Percent, butyric (rumen flora; dose 5 ppm): 0.62 | Ratio of Treated to Control, Molar Percent, propionic (rumen flora; dose 5 ppm): 1.30 | Ratio of Treated to Control, mMoles/Day, Total VFA (rumen flora; dose 5 ppm): 1.07 | Ratio of Treated to Control, mMoles/Day, acetic (rumen flora; dose 5 ppm): 1.16 | Ratio of Treated to Control, mMoles/Day, butyric (rumen flora; dose 5 ppm): 0.66 | Ratio of Treated to Control, mMoles/Day, methane (rumen flora; dose 5 ppm): 0.50 | Ratio of Treated to Control, mMoles/Day, propionic (rumen flora; dose 5 ppm): 1.39 | feed-utilization efficiency in ruminants (rumen flora; statement in words): improve feed-utilization efficiency in ruminants | activity against M. luteus (Micrococcus luteus): active
